Measured values taken from patent US20260223853A1, “PESTICIDALLY ACTIVE HETEROCYCLIC DERIVATIVES WITH SULFUR CONTAINING SUBSTITUENTS” (SYNGENTA CROP PROTECTION AG, priority 2023, published 2026).

Assays:
Assay type in all cases: in vivo
[1] = system: Euschistus heros (Neotropical Brown Stink Bug); assay: Example B3: Activity against Euschistus heros (neotropical brown stink bug), soybean leaves, N2 nymphs; conditions: 120 h, application rate of 200 ppm, 5 days after infestation, in comparison to untreated samples, read-out: effect in at least one of the two categories (mortality or growth inhibition)
Protocol: Example B3: Activity Against Euschistus heros (Neotropical Brown Stink Bug)
Soybean leaves on agar in 24-well microtiter plates were sprayed with aqueous test solutions prepared from 10′000 ppm DMSO stock solutions. After drying the leaves were infested with N2 nymphs. The samples were assessed for mortality and growth inhibition in comparison to untreated samples 5 days after infestation.

[2] = system: Plutella xylostella (Diamond Back Moth); assay: Example B6: Activity against Plutella xylostella (diamond back moth), artificial diet, eggs; conditions: 192 h, application rate of 200 ppm, 8 days after infestation, in comparison to untreated samples, read-out: effect in at least one of the two categories (mortality or growth inhibition)
Protocol: Example B6: Activity Against Plutella xylostella (Diamond Back Moth)
24-well microtiter plates with artificial diet were treated with aqueous test solutions prepared from 10′000 ppm DMSO stock solutions by pipetting. After drying, Plutella eggs were pipetted through a plastic stencil onto a gel blotting paper and the plate was closed with it. The samples were assessed for mortality and growth inhibition in comparison to untreated samples 8 days after infestation. The following compounds gave an effect of at least 80% in at least one of the two categories (mortality or growth inhibition) at an application rate of 200 ppm: P.1, P.2, P.3, P.4, P.5, P.6, P.7, P.8, P.9, P.10, P.11, P.12.

[3] = system: Myzus persicae (Green peach aphid); assay: Example B5: Activity against Myzus persicae (green peach aphid), systemic activity, pea seedlings; conditions: 144 h, test rate of 24 ppm, 6 days after placing seedlings into test solutions
Protocol: Example B5: Activity Against Myzus persicae (Green Peach Aphid) Systemic Activity
Roots of pea seedlings infested with an aphid population of mixed ages were placed directly into aqueous test solutions prepared from 10′000 DMSO stock solutions. The samples were assessed for mortality 6 days after placing seedlings into test solutions.

[4] = system: Myzus persicae (Green peach aphid); assay: Example B4: Activity against Myzus persicae (green peach aphid), feeding/contact activity, sunflower leaf discs; conditions: foliar, 144 h, application rate of 200 ppm, 6 days after infestation
Protocol: Example B4: Activity against Myzus persicae (Green peach aphid) Feeding/Contact activity Sunflower leaf discs were placed onto agar in a 24-well microtiter plate and sprayed with aqueous test solutions prepared from 10′000 ppm DMSO stock solutions. After drying, the leaf discs were infested with an aphid population of mixed ages. The samples were assessed for mortality 6 days after infestation.

[5] = system: Chilo suppressalis (Striped Rice Stemborer); assay: Example B1: Activity against Chilo suppressalis (striped rice stemborer), artificial diet, L2 larvae; conditions: 144 h, application rate of 200 ppm, 6 days after infestation, in comparison to untreated samples, read-out: control (at least one of mortality, anti-feedant effect, growth inhibition)
Protocol: Example B1: Activity Against Chilo suppressalis (Striped Rice Stemborer)
24-well microtiter plates with artificial diet were treated with aqueous test solutions prepared from 10′000 ppm DMSO stock solutions by pipetting. After drying, the plates were infested with L2 larvae (6-8 per well). The samples were assessed for mortality, anti-feeding effect, and growth inhibition in comparison to untreated samples 6 days after infestation. Control of Chilo suppressalis by a test sample is given when at least one of the categories mortality, anti-feedant effect, and growth inhibition is higher than the untreated sample.

[6] = system: Diabrotica balteata (Corn Root Worm); assay: Example B2: Activity against Diabrotica balteata (corn root worm), maize sprouts, L2 larvae; conditions: 96 h, application rate of 200 ppm, 4 days after infestation, in comparison to untreated samples, read-out: effect in at least one of the two categories (mortality or growth inhibition)
Protocol: Example B2: Activity Against Diabrotica balteata (Corn Root Worm)
Maize sprouts placed onto an agar layer in 24-well microtiter plates were treated with aqueous test solutions prepared from 10′000 ppm DMSO stock solutions by spraying. After drying, the plates were infested with L2 larvae (6 to 10 per well). The samples were assessed for mortality and growth inhibition in comparison to untreated samples 4 days after infestation.

[7] = system: Spodoptera littoralis (Egyptian Cotton Leaf Worm); assay: Example B7: Activity against Spodoptera littoralis (Egyptian cotton leaf worm), cotton leaf discs, L1 larvae; conditions: foliar, 72 h, application rate of 200 ppm, 3 days after infestation, in comparison to untreated samples, read-out: control (at least one of mortality, anti-feedant effect, growth inhibition)
Protocol: Example B7: Activity Against Spodoptera littoralis (Egyptian Cotton Leaf Worm)
Cotton leaf discs were placed onto agar in 24-well microtiter plates and sprayed with aqueous test solutions prepared from 10′000 ppm DMSO stock solutions. After drying the leaf discs were infested with five L1 larvae. The samples were assessed for mortality, anti-feeding effect, and growth inhibition in comparison to untreated samples 3 days after infestation. Control of Spodoptera littoralis by a test sample is given when at least one of the categories mortality, anti-feedant effect, and growth inhibition is higher than the untreated sample.

CCS(=O)(=O)c1cc(C2(C#N)CC2)cnc1N1CCc2nc(C(F)(F)F)ccc2C1=O [P.3, 1-[5-ethylsulfonyl-6-[5-oxo-2-(trifluoromethyl)-7,8-dihydro-1,6-naphthyridin-6-yl]-3-pyridyl] cyclopropane-carbonitrile]
≥ 80%: percent effect (mortality or growth inhibition) at 200 ppm [1] | percent effect (mortality or growth inhibition) at 200 ppm [2] | mortality at 24 ppm [3] | mortality at 200 ppm [4] | percent control (mortality, anti-feedant effect or growth inhibition) at 200 ppm [5] | percent effect (mortality or growth inhibition) at 200 ppm [6] | control at 200 ppm [7]
